Test system: patients with gout and a history of major cardiovascular diseases
Assay: eGFR over time by average serum uric acid concentration, analysis of clinical trial data
Format: in vivo, human
Details: febuxostat group
Protocol: In order to evaluate non-inferiority of febuxostat to allopurinol related to cardiovascular risk, a clinical trial was designed and proceeded.
A multicenter, randomized, double-blind non-inferiority trial was performed. The details of the clinical trial design have been published previously. An independent data and safety monitoring committee with access to unblinded data monitored the clinical trial. The statistical analysis for the data and the safety monitoring committee was performed by an independent statistical group (WebbWrites).
The patients were regarded as having a history of major cardiovascular diseases, if they had myocardial infarction, hospitalization for unstable angina, stroke, hospitalization for transient ischemic attack, peripheral vascular disease, or diabetes mellitus symptoms. All participants provided a prior informed consent form.
The patients were randomly assigned so that they received febuxostat or allopurinol administered once a day in a double-blind manner. The randomization was stratified according to the estimated creatinine clearance at baseline (patient group having an estimated creatinine clearance ≥60 ml per minute vs patient group having an estimated creatinine clearance ≥30 and <60 ml per minute).
The dose of allopurinol was modified according to a kidney function. The patients with the estimated creatinine clearance 60 ml or more per minute i) initially received allopurinol at a dose of 300 mg once a day, and the dose was increased in 100 mg increments monthly until the patient had the serum uric acid concentration of less than 6.0 mg per deciliter or the dosage of allopurinol was 600 mg once a day. The patient having the estimated creatinine clearance of 30 ml or more and less than 60 ml per minute initially received 200 mg of allopurinol, and then the dose was increased in 100 mg increments until the patient either had the serum uric acid concentration of less than 6.0 mg per deciliter or was receiving the allopurinol dose of 400 mg once daily.
The dose of febuxostat was not modified according to the kidney function. The patients who were randomly assigned to receive febuxostat initially received 40 mg once a daily, and continued to receive the same dosage if the serum uric acid concentration was less than 6.0 mg per deciliter after 2 weeks of the treatment. If the serum uric acid concentration was higher than 6.0 mg per deciliter at 2nd week visit, the dose of febuxostat was increased to 80 mg once daily for the remainder of the trial.
During the period, the administration of a double-blind and double-dummy trial medications was guided by an interactive voice-response system which was a procedure to prevent unblinding for the patients whose dose was not adjusted. After completing dose adjustment, the urate level was concealed from the investigators, and the treatment was managed throughout the trial using the interactive voice-response system.
Outpatient visits were conducted according to the following schedule: during screening and randomization, and at 2, 4, 6, 8, 10, 12, and 24 weeks after the randomization, and every 6 months during the subsequent years of the trial. The patients with reduced kidney function or, the patients aged 65 years or older at randomization were visited at 9 and 15 months for monitoring the serum chemical profile. If the patient agreed to be monitored, but would not return for study visit, telephone contact was made, but such method was not preferred or recommended.
In order to confirm the effect of allopurinol and febuxostat on the kidney disease, the data obtained in the clinical trial described above was analyzed.

Cc1nc(-c2ccc(OCC(C)C)c(C#N)c2)sc1C(=O)O [febuxostat]
eGFR Mean (95% CI) (DBP <80, Average UA <6, Month 3): 61.85 (60.63-63.08) ml/min/1.73 m^2 | eGFR Mean (95% CI) (DBP <80, Average UA <6, Month 6): 61.84 (60.56-63.11) ml/min/1.73 m^2 | eGFR Mean (95% CI) (DBP <80, Average UA <6, Month 12): 63.06 (61.79-64.33) ml/min/1.73 m^2 | eGFR Mean (95% CI) (DBP <80, Average UA <6, Month 18): 63.11 (61.75-64.47) ml/min/1.73 m^2 | eGFR Mean (95% CI) (DBP <80, Average UA <6, Month 24): 63.79 (62.31-65.27) ml/min/1.73 m^2 | eGFR Mean (95% CI) (DBP <80, Average UA <6, Month 30): 63.51 (61.89-65.13) ml/min/1.73 m^2 | eGFR Mean (95% CI) (DBP <80, Average UA <6, Month 36): 64.28 (62.56-66.00) ml/min/1.73 m^2 | eGFR Mean (95% CI) (DBP <80, Average UA <6, Month 42): 64.43 (62.50-66.35) ml/min/1.73 m^2 | eGFR Mean (95% CI) (DBP <80, Average UA <6, Month 48): 65.60 (63.48-67.72) ml/min/1.73 m^2 | eGFR Mean (95% CI) (DBP <80, Average UA <6, Month 54): 65.70 (63.39-68.00) ml/min/1.73 m^2 | eGFR Mean (95% CI) (DBP <80, Average UA <6, Month 60): 66.92 (64.25-69.59) ml/min/1.73 m^2 | eGFR Mean (95% CI) (DBP <80, Average UA <6, Week 2): 62.06 (60.81-63.31) ml/min/1.73 m^2 | eGFR Mean (95% CI) (DBP <80, Average UA ≥6, Baseline): 62.08 (59.70-64.45) ml/min/1.73 m^2 | eGFR Mean (95% CI) (DBP <80, Average UA ≥6, Month 3): 61.44 (58.99-63.89) ml/min/1.73 m^2 | eGFR Mean (95% CI) (DBP <80, Average UA ≥6, Month 6): 61.49 (59.02-63.95) ml/min/1.73 m^2 | eGFR Mean (95% CI) (DBP <80, Average UA ≥6, Month 12): 60.74 (58.06-63.41) ml/min/1.73 m^2 | eGFR Mean (95% CI) (DBP <80, Average UA ≥6, Month 18): 60.18 (57.20-63.15) ml/min/1.73 m^2 | eGFR Mean (95% CI) (DBP <80, Average UA ≥6, Month 24): 60.32 (57.11-63.53) ml/min/1.73 m^2 | eGFR Mean (95% CI) (DBP <80, Average UA ≥6, Month 30): 59.54 (55.89-63.19) ml/min/1.73 m^2 | eGFR Mean (95% CI) (DBP <80, Average UA ≥6, Month 36): 60.26 (56.16-64.37) ml/min/1.73 m^2 | eGFR Mean (95% CI) (DBP <80, Average UA ≥6, Month 42): 59.55 (55.09-64.02) ml/min/1.73 m^2 | eGFR Mean (95% CI) (DBP <80, Average UA ≥6, Month 48): 59.84 (55.23-64.46) ml/min/1.73 m^2 | eGFR Mean (95% CI) (DBP <80, Average UA ≥6, Month 54): 60.35 (55.08-65.62) ml/min/1.73 m^2 | eGFR Mean (95% CI) (DBP <80, Average UA ≥6, Month 60): 60.01 (53.34-66.68) ml/min/1.73 m^2 | eGFR Mean (95% CI) (DBP <80, Average UA ≥6, Week 2): 62.00 (59.39-64.62) ml/min/1.73 m^2 | eGFR Mean (95% CI) (SBP <130, Average UA <6, Baseline): 64.76 (63.32-66.20) ml/min/1.73 m^2 | eGFR Mean (95% CI) (SBP <130, Average UA <6, Month 3): 64.67 (63.21-66.12) ml/min/1.73 m^2 | eGFR Mean (95% CI) (SBP <130, Average UA <6, Month 6): 64.87 (63.38-66.36) ml/min/1.73 m^2 | eGFR Mean (95% CI) (SBP <130, Average UA <6, Month 12): 66.06 (64.55-67.57) ml/min/1.73 m^2 | eGFR Mean (95% CI) (SBP <130, Average UA <6, Month 18): 66.18 (64.56-67.79) ml/min/1.73 m^2 | eGFR Mean (95% CI) (SBP <130, Average UA <6, Month 24): 66.12 (64.42-67.83) ml/min/1.73 m^2 | eGFR Mean (95% CI) (SBP <130, Average UA <6, Month 30): 66.59 (64.74-68.44) ml/min/1.73 m^2 | eGFR Mean (95% CI) (SBP <130, Average UA <6, Month 36): 67.47 (65.55-69.39) ml/min/1.73 m^2 | eGFR Mean (95% CI) (SBP <130, Average UA <6, Month 42): 66.93 (64.77-69.08) ml/min/1.73 m^2 | eGFR Mean (95% CI) (SBP <130, Average UA <6, Month 48): 68.21 (65.88-70.54) ml/min/1.73 m^2 | eGFR Mean (95% CI) (SBP <130, Average UA <6, Month 54): 68.62 (66.03-71.22) ml/min/1.73 m^2 | eGFR Mean (95% CI) (SBP <130, Average UA <6, Month 60): 69.36 (66.42-72.30) ml/min/1.73 m^2 | eGFR Mean (95% CI) (SBP <130, Average UA <6, Week 2): 65.16 (63.69-66.63) ml/min/1.73 m^2 | eGFR Mean (95% CI) (SBP <130, Average UA ≥6, Baseline): 65.83 (63.23-68.44) ml/min/1.73 m^2 | eGFR Mean (95% CI) (SBP <130, Average UA ≥6, Month 3): 65.54 (62.88-68.20) ml/min/1.73 m^2 | eGFR Mean (95% CI) (SBP <130, Average UA ≥6, Month 6): 65.87 (63.30-68.43) ml/min/1.73 m^2 | eGFR Mean (95% CI) (SBP <130, Average UA ≥6, Month 12): 65.19 (62.39-67.99) ml/min/1.73 m^2 | eGFR Mean (95% CI) (SBP <130, Average UA ≥6, Month 18): 63.60 (60.49-66.71) ml/min/1.73 m^2 | eGFR Mean (95% CI) (SBP <130, Average UA ≥6, Month 24): 62.90 (59.50-66.30) ml/min/1.73 m^2 | eGFR Mean (95% CI) (SBP <130, Average UA ≥6, Month 30): 62.62 (58.76-66.48) ml/min/1.73 m^2 | eGFR Mean (95% CI) (SBP <130, Average UA ≥6, Month 36): 65.24 (60.84-69.64) ml/min/1.73 m^2 | eGFR Mean (95% CI) (SBP <130, Average UA ≥6, Month 42): 65.47 (60.56-70.39) ml/min/1.73 m^2 | eGFR Mean (95% CI) (SBP <130, Average UA ≥6, Month 48): 64.82 (59.40-70.23) ml/min/1.73 m^2 | eGFR Mean (95% CI) (SBP <130, Average UA ≥6, Month 54): 65.92 (59.74-72.11) ml/min/1.73 m^2 | eGFR Mean (95% CI) (SBP <130, Average UA ≥6, Month 60): 64.71 (57.42-72.01) ml/min/1.73 m^2 | eGFR Mean (95% CI) (SBP <130, Average UA ≥6, Week 2): 65.59 (62.82-68.36) ml/min/1.73 m^2
